For data set [1], the target named is T1, Acid-sensing ion channel 3 (Homo sapiens, UniProt Q9UHC3).
T1 sequence (Q9UHC3 whole entry): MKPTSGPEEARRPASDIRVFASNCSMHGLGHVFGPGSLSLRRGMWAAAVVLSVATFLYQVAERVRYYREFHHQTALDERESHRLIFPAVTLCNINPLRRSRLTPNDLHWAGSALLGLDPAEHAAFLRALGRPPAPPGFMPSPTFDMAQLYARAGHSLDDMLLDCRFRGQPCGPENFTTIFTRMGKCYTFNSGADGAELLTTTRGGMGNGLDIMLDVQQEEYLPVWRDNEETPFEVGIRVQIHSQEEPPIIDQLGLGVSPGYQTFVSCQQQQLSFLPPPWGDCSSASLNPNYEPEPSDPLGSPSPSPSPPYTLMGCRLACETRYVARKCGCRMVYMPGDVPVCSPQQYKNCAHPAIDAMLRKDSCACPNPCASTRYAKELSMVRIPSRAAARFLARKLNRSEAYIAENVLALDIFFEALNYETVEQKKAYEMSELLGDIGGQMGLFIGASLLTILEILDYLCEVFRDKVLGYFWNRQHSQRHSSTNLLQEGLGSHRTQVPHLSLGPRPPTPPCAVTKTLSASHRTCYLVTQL
The data set can be described thus: Inhibition of ASIC3 by patch-clamp electrophysiology assay. A general note: Patch clamp records ionic current or voltage across a cell membrane.

Data set [2] concerns the target T2, Acid-sensing ion channel 3 (Homo sapiens) (UniProt Q9UHC3).
T2 sequence (whole entry): T1 sequence (Q9UHC3 whole entry)
In words: Inhibition of ASIC3 at 1 uM by patch-clamp electrophysiology assay relative to baseline peak current.

Data set [3] deals with T2, Acid-sensing ion channel 3 (Homo sapiens). The data set can be described thus: Inhibition of ASIC3 at 10 uM by patch-clamp electrophysiology assay relative to baseline peak current.
Data set [4] can be described thus: Half life in iv dosed rat plasma. It is filed as ADME, organism-based.
Data set [5] can be described thus: Blood clearance in iv dosed rat. It is filed as ADME, organism-based. Particulars: whole blood.
Data set [6] can be described thus: Plasma clearance in iv dosed rat. It is filed as ADME, organism-based.
In data set [7] the test system is Rattus norvegicus. The data set can be described thus: Analgesic activity against complete Freund's adjuvant-induced […] in Sprague-Dawley rat assessed as reversal of mechanical hypersensitivity at 20 mg/kg, po after 30 mins. Set-up: dose 20 mg/kg. It is filed as functional, organism-based.
The test system of data set [8] is Rattus norvegicus. In words: Analgesic activity against complete Freund's adjuvant-induced […] in Sprague-Dawley rat assessed as reversal of mechanical hypersensitivity at 30 mg/kg, ip after 30 mins. Format: functional, organism-based. Set-up: dose 30 mg/kg.
A short description of data set [9]: Half life in iv dosed rat blood. The following applies: whole blood. Format: ADME, organism-based.

Active and inactive are the calls of the source. No cut-off for these calls is given here.

In turn, `N#Cc1c(Cl)cc(-c2cc3cc(C(=N)N)ccc3[nH]2)cc1Cl` returned an IC50 in data set [1] of 272 nM. This compound registered an inhibition in [2] of 83%.
Regarding `N=C(N)c1ccc(-c2cc3ccc(C(=N)N)cc3[nH]2)cc1`, the inhibition in data set [2] stood at 33%; in data set [3], 83%.
`N=C(N)c1ccc2[nH]c(-c3cc(Br)cc(Br)c3)cc2c1` gave an IC50 in data set [1] of 59 nM. Further, the inhibition in data set [2] and in data set [3] was 92% in each case.
Turning to `N=C(N)c1ccc2[nH]c(-c3cc(Cl)cc(-c4ccccc4)c3)cc2c1`, the inhibition in data set [2] is 94%.
Same read-out and setting: for `Cn1c(-c2ccc(C(=N)N)cc2)cc2cc(C(=N)N)ccc21` the value was 14%.
`N=C(N)c1ccc2[nH]c(-c3cc(Cl)cc(Cl)c3)cc2c1` gave a concentration for half-maximal inhibition (IC50) in data set [1] of 133 nM. Also, the half-life in data set [4] was 2 h; in [9] it was 4.4 h. Moreover, the clearance in data set [5] and in data set [6] was 8.5 mL/min/kg each time. Further, the figures for the inhibition in data set [2] and in [3] were 92% and 98%, respectively. Further, the outcome in [7] and in data set [8] was Active.
In data set [1], `N=C(N)c1ccc2[nH]c(-c3cc(N)cc(Cl)c3)cc2c1` displayed an IC50 of 95 nM. The compound also registered an inhibition in data set [2] of 78%.
Regarding `N=C(N)c1ccc2[nH]c(-c3ccccc3)cc2c1`, 2760 nM corresponded to half-maximal inhibition in [1] (IC50). The inhibition in data set [3] turned out to be 88%.
With `N=C(N)c1ccc2[nH]c(-c3cc(Cl)nc(Cl)c3)cc2c1`, half-maximal inhibition in [1] (IC50) was put at 291 nM. The inhibition in data set [2] amounted to 84%.
The compound `N=C(N)c1ccc2cc(-c3ccccc3)[nH]c2c1` displayed an inhibition in data set [2] of 18%.
Take `Cc1cc(Cl)cc(-c2cc3cc(C(=N)N)ccc3[nH]2)c1`: in [1], the IC50 was 51 nM. This compound also showed an inhibition in data set [2] of 87%.
In data set [1], `COc1cc(F)cc(-c2cc3cc(C(=N)N)ccc3[nH]2)c1` had an IC50 of 374 nM. Also, the inhibition stood at 77% in [2] and 98% in data set [3].
Regarding `N=C(N)c1ccc2[nH]c(-c3cc(Cl)cc(NCc4ccccc4)c3)cc2c1`, the IC50 in [1] was found to be 77 nM. In addition, the inhibition in data set [2] is 91%.
In data set [1], `N=C(N)c1ccc2[nH]c(-c3cc(Cl)cc(CNc4ccccc4)c3)cc2c1` gave an IC50 of 114 nM. The compound also gave an inhibition in [2] of 83%.
`N=C(N)c1ccc(-c2cc3ccccc3[nH]2)cc1` showed an inhibition in data set [3] of 46%.
Same read-out and setting: for `N=C(N)c1ccc(-c2nc3cc(C(=N)N)ccc3[nH]2)cc1` the value was 53%.
For `N=C(N)c1ccc2[nH]c(-c3cc(F)cc(Br)c3)cc2c1`, half-maximal inhibition in [1] (IC50) was put at 59 nM. In addition, the figures for the inhibition in [2] and in [3] were 93% and 96%, respectively.
`N=C(N)c1ccc2[nH]c(-c3cc(Cl)cc(Cl)c3Cl)cc2c1` showed an IC50 in [1] of 135 nM. The inhibition in [2] amounted to 91%.
In data set [1], `N=C(N)c1ccc2[nH]c(-c3cc(F)cc(Cl)c3)cc2c1` came in with an IC50 of 278 nM. In addition, the inhibition in data set [2] is 82%; in data set [3], 99%.

One may read the IC50 as the concentration at which inhibition is half-maximal. Lower therefore signals greater potency. A word on the inhibition: it is the change of the read-out against control, counted positive when it falls. Higher therefore signals a strong effect. As a reminder, the half-life is how long it takes for the measured level to halve. By clearance is commonly meant the rate of elimination divided by the concentration. Higher therefore signals a high capacity for elimination.

Values taken from ChEMBL document CHEMBL1153050, “Amidine derived inhibitors of acid-sensing ion channel-3 (ASIC3)” (Bioorg Med Chem Lett, 2009).
